According to US11512079B2, “Heterocycle substituted pyridine derivative antifungal agents” (Amplyx Pharmaceuticals, Inc., priority 2017, dated 2022):
Values after ≈ are worked out from the molar mass of the structure shown.

Experiments:
Format in all cases: cell-based
Candida albicans 90028 = assay: In vitro antifungal assay (Example IX), microdilution broth, MIC; conditions: minimum inhibitory concentration (≥50% inhibition), 35° C., 40-48 h, RPMI1640
How it was run: (§1)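 CLSI broth microdilution in RPMI1640 with 2.5×10^3 cells/mL and final compound concentrations of 2-0.0019 μg/mL (1% DMSO). C. albicans 90028 plates were incubated at 35° C. for 40-48 h and C. neoformans H99 for 72 h. MIC was read as minimum inhibitory concentration, verified at 600 nm.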

[1] = test system: Cryptococcus neoformans H99; assay: as above; conditions: minimum inhibitory concentration (≥50% inhibition), 35° C., 72 h, RPMI1640
How it was run: as §1

[2] = test system: Aspergillus fumigatus MYA3626; assay: In vitro antifungal assay (Example IX), microdilution broth, MEC; conditions: minimum effective concentration (shortening of hyphae), 35° C., 40-48 h, RPMI1640
How it was run: (§2)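 Spore suspensions of A. fumigatus and R. pusillus adjusted to 1-2×10^4 spores/mL in RPMI1640 and exposed to compound dilutions prepared in DMSO, by broth microdilution. MEC taken as the lowest concentration shortening hyphae versus DMSO control wells, read as for echinocandins.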

[3] = test system: Rhizomucor pusillus 46342; assay: as above; conditions: minimum effective concentration (shortening of hyphae), 35° C., 40-48 h, RPMI1640
How it was run: as §2

Cryptococcus gattii = assay: In vitro antifungal assay (Example IX), microdilution broth, MIC; conditions: minimum inhibitory concentration (≥50% inhibition), 35° C., 72 h (Cryptococcus), RPMI1640
How it was run: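 Broth microdilution in RPMI1640 with 2.5×10^3 cells/mL inoculum; final compound concentrations were 2–0.0019 μg/mL, with 1% DMSO. Cryptococcus plates were incubated at 35 °C for 72 h, and growth was read at 600 nm to give the MIC.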

SMILES	MIC (Candida albicans 90028) [µg/mL]	MIC [1] [µg/mL]	minimal effective concentration [2] [µg/mL]	minimal effective concentration [3] [µg/mL]	MIC (Cryptococcus gattii) [µg/mL]
Nc1ncccc1-c1cc(Cc2ccc(CNc3nc(Cl)cs3)cc2)no1 [compound 34, N-(4-((5-(2-aminopyridin-3-yl)isoxazol-3-yl)methyl)benzyl)-4-chlorothiazol-2-amine]	0.01 to 0.1 (≈ 0.0251 to 0.251 µM)	> 1	0.1 to 1	0.1 to 1	0.1 to 1 (≈ 0.251 to 2.51 µM)
Nc1ncccc1-c1cc(Cc2ccc(OCc3ccccn3)nc2)no1 [compound 35, 3-(3-((6-(pyridin-2-ylmethoxy)pyridin-3-yl)methyl)isoxazol-5-yl)pyridin-2-amine]	0.01 to 0.1 (≈ 0.0278 to 0.278 µM)	0.01 to 0.1 (≈ 0.0278 to 0.278 µM)	0.01 to 0.1	> 1	0.01 to 0.1 (≈ 0.0278 to 0.278 µM)
Nc1ncccc1-c1cc(Cc2ccc(OCc3cccnc3)nc2)no1 [compound 36, 3-(3-((6-(pyridin-3-ylmethoxy)pyridin-3-yl)methyl)isoxazol-5-yl)pyridin-2-amine]	0.01 to 0.1 (≈ 0.0278 to 0.278 µM)	0.01 to 0.1 (≈ 0.0278 to 0.278 µM)	0.01 to 0.1	> 1	0.01 to 0.1 (≈ 0.0278 to 0.278 µM)
Nc1ncccc1-c1cc(Cc2ccc(OCc3ccncc3)nc2)no1 [compound 37, 3-(3-((6-(pyridin-4-ylmethoxy)pyridin-3-yl)methyl)isoxazol-5-yl)pyridin-2-amine]	0.01 to 0.1 (≈ 0.0278 to 0.278 µM)	≤ 0.01	0.01 to 0.1	> 1	≤ 0.01
Cc1cc(COc2ccc(Cc3cc(-c4cccnc4N)on3)cn2)no1 [compound 38, 3-(3-((6-((5-methylisoxazol-3-yl)methoxy)pyridin-3-yl)methyl)isoxazol-5-yl)pyridin-2-amine]	0.1 to 1 (≈ 0.275 to 2.75 µM)	0.1 to 1 (≈ 0.275 to 2.75 µM)	0.01 to 0.1	0.1 to 1	0.1 to 1 (≈ 0.275 to 2.75 µM)
Nc1ncccc1-c1cc(Cc2ccc(OCCc3ccccn3)nc2)no1 [compound 39, 3-(3-((6-(2-(pyridin-2-yl)ethoxy)pyridin-3-yl)methyl)isoxazol-5-yl)pyridin-2-amine]	0.1 to 1 (≈ 0.268 to 2.68 µM)	0.1 to 1 (≈ 0.268 to 2.68 µM)	0.1 to 1	> 1	0.1 to 1 (≈ 0.268 to 2.68 µM)
Nc1ncccc1-c1cc(Cc2ccc(OCc3cccs3)nc2)no1 [compound 40, 3-(3-((6-(thiophen-2-ylmethoxy)pyridin-3-yl)methyl)isoxazol-5-yl)pyridin-2-amine]	0.1 to 1 (≈ 0.274 to 2.74 µM)	0.01 to 0.1 (≈ 0.0274 to 0.274 µM)	0.01 to 0.1	0.1 to 1	0.01 to 0.1 (≈ 0.0274 to 0.274 µM)
Nc1ncccc1-c1cc(Cc2ccc(OCc3cscn3)nc2)no1 [compound 41, 3-(3-((6-(thiazol-4-ylmethoxy)pyridin-3-yl)methyl)isoxazol-5-yl)pyridin-2-amine]	0.01 to 0.1 (≈ 0.0274 to 0.274 µM)	0.01 to 0.1 (≈ 0.0274 to 0.274 µM)	0.01 to 0.1	0.1 to 1	0.01 to 0.1 (≈ 0.0274 to 0.274 µM)
Nc1ncccc1-c1cc(Cc2ccc(OCc3nccs3)nc2)no1 [compound 42, 3-(3-((6-(thiazol-2-ylmethoxy)pyridin-3-yl)methyl)isoxazol-5-yl)pyridin-2-amine]	0.01 to 0.1 (≈ 0.0274 to 0.274 µM)	0.01 to 0.1 (≈ 0.0274 to 0.274 µM)	0.01 to 0.1	0.1 to 1	0.01 to 0.1 (≈ 0.0274 to 0.274 µM)
Nc1ncccc1-c1cc(Cc2ccc(OCC3CC3)nc2)no1 [compound 43, 3-(3-((6-(cyclopropylmethoxy)pyridin-3-yl)methyl)isoxazol-5-yl)pyridin-2-amine]	0.1 to 1 (≈ 0.31 to 3.1 µM)	0.01 to 0.1 (≈ 0.031 to 0.31 µM)	0.01 to 0.1	0.1 to 1	0.01 to 0.1 (≈ 0.031 to 0.31 µM)
Nc1ncccc1-c1cc(Cc2ccc(OCc3ncccn3)nc2)no1 [compound 46, 3-(3-((6-(pyrimidin-2-ylmethoxy)pyridin-3-yl)methyl)isoxazol-5-yl)pyridin-2-amine]	0.1 to 1 (≈ 0.277 to 2.77 µM)	0.1 to 1 (≈ 0.277 to 2.77 µM)	0.1 to 1	> 1	0.1 to 1 (≈ 0.277 to 2.77 µM)
Nc1ncccc1-c1cc(Cc2ccc(OCc3cnccn3)nc2)no1 [compound 47, 3-(3-((6-(pyrazin-2-ylmethoxy)pyridin-3-yl)methyl)isoxazol-5-yl)pyridin-2-amine]	0.01 to 0.1 (≈ 0.0277 to 0.277 µM)	0.1 to 1 (≈ 0.277 to 2.77 µM)	0.1 to 1	0.1 to 1	0.1 to 1 (≈ 0.277 to 2.77 µM)
Nc1ncccc1-c1cc(Cc2ccc(OCc3ccoc3)nc2)no1 [compound 48, 3-(3-((6-(furan-3-ylmethoxy)pyridin-3-yl)methyl)isoxazol-5-yl)pyridin-2-amine]	0.01 to 0.1 (≈ 0.0287 to 0.287 µM)	0.01 to 0.1 (≈ 0.0287 to 0.287 µM)	0.01 to 0.1	0.1 to 1	0.01 to 0.1 (≈ 0.0287 to 0.287 µM)
Cc1nc(COc2ccc(Cc3cc(-c4cccnc4N)on3)cn2)cs1 [compound 50, 3-(3-((6-((2-methylthiazol-4-yl)methoxy)pyridin-3-yl)methyl)isoxazol-5-yl)pyridin-2-amine]	0.1 to 1 (≈ 0.264 to 2.64 µM)	0.1 to 1 (≈ 0.264 to 2.64 µM)	0.1 to 1	> 1	0.1 to 1 (≈ 0.264 to 2.64 µM)
Nc1ncccc1-c1cc(Cc2ccc(OCc3ccc(F)cn3)nc2)no1 [compound 51, 3-(3-((6-((5-fluoropyridin-2-yl)methoxy)pyridin-3-yl)methyl)isoxazol-5-yl)pyridin-2-amine]	0.1 to 1 (≈ 0.265 to 2.65 µM)	0.1 to 1 (≈ 0.265 to 2.65 µM)	0.01 to 0.1	0.1 to 1	0.1 to 1 (≈ 0.265 to 2.65 µM)
Nc1ncccc1-c1cc(Cc2ccc(OCc3ncco3)nc2)no1 [compound 53, 3-(3-((6-(oxazol-2-ylmethoxy)pyridin-3-yl)methyl)isoxazol-5-yl)pyridin-2-amine]	0.1 to 1 (≈ 0.286 to 2.86 µM)	0.1 to 1 (≈ 0.286 to 2.86 µM)	0.1 to 1	0.1 to 1	0.1 to 1 (≈ 0.286 to 2.86 µM)
Nc1ncccc1-c1cc(Cc2ccc(OCc3ccncc3F)nc2)no1 [compound 54, 3-(3-((6-((3-fluoropyridin-4-yl)methoxy)pyridin-3-yl)methyl)isoxazol-5-yl)pyridin-2-amine]	0.01 to 0.1 (≈ 0.0265 to 0.265 µM)	0.01 to 0.1 (≈ 0.0265 to 0.265 µM)	0.01 to 0.1	> 1	≤ 0.01
CC(Oc1ccc(Cc2cc(-c3cccnc3N)on2)cn1)c1ccccn1 (stereo not shown) [compound 55, 3-(3-((6-(1-(pyridin-2-yl)ethoxy)pyridin-3-yl)methyl)isoxazol-5-yl)pyridin-2-amine]	0.1 to 1 (≈ 0.268 to 2.68 µM)	0.1 to 1 (≈ 0.268 to 2.68 µM)	0.1 to 1	> 1	0.1 to 1 (≈ 0.268 to 2.68 µM)
Nc1ncccc1-c1cc(Cc2ccc(OCC3CCC3)nc2)no1 [compound 57, 3-(3-((6-(cyclobutylmethoxy)pyridin-3-yl)methyl)isoxazol-5-yl)pyridin-2-amine]	0.01 to 0.1 (≈ 0.0297 to 0.297 µM)	0.01 to 0.1 (≈ 0.0297 to 0.297 µM)	0.01 to 0.1	0.1 to 1	≤ 0.01
Nc1ncccc1-c1cc(Cc2ccc(Nc3ccccc3)nc2)no1 [compound 58, 5-((5-(2-aminopyridin-3-yl)isoxazol-3-yl)methyl)-N-phenylpyridin-2-amine]	0.01 to 0.1 (≈ 0.0291 to 0.291 µM)	0.1 to 1 (≈ 0.291 to 2.91 µM)	0.1 to 1	0.1 to 1	0.01 to 0.1 (≈ 0.0291 to 0.291 µM)
Nc1ncccc1-c1cc(Cc2ccc(Nc3ccccc3F)nc2)no1 [compound 60, 5-((5-(2-aminopyridin-3-yl)isoxazol-3-yl)methyl)-N-(2-fluorophenyl)pyridin-2-amine]	0.01 to 0.1 (≈ 0.0277 to 0.277 µM)	0.01 to 0.1 (≈ 0.0277 to 0.277 µM)	0.1 to 1	> 1	0.01 to 0.1 (≈ 0.0277 to 0.277 µM)
Nc1ncccc1-c1cc(Cc2ccc(SCc3ccccc3)nc2)no1 [compound 61, 3-(3-((6-(benzylthio)pyridin-3-yl)methyl)isoxazol-5-yl)pyridin-2-amine]	0.01 to 0.1 (≈ 0.0267 to 0.267 µM)	0.1 to 1 (≈ 0.267 to 2.67 µM)	0.01 to 0.1	> 1	0.01 to 0.1 (≈ 0.0267 to 0.267 µM)
c1ccc(OCc2ccc(Cn3cc(-c4cccnc4)cn3)cc2)nc1 [compound 62, 2-((4-((4-(pyridin-3-yl)-1H-pyrazol-1-yl)methyl)benzyl)oxy)pyridine]	0.1 to 1 (≈ 0.292 to 2.92 µM)	> 1	0.01 to 0.1	> 1	> 1
c1ccc(COc2ccc(Cn3cc(-c4cccnc4)cn3)cn2)cc1 [compound 65, 2-(benzyloxy)-5-((4-(pyridin-3-yl)-1H-pyrazol-1-yl)methyl)pyridine]	0.1 to 1 (≈ 0.292 to 2.92 µM)	0.1 to 1 (≈ 0.292 to 2.92 µM)	0.01 to 0.1	> 1	0.1 to 1 (≈ 0.292 to 2.92 µM)
Nc1ncccc1-c1cc(Cc2ccc(Cc3cccnc3F)cc2)no1 [compound 69, 3-(3-(4-((2-fluoropyridin-3-yl)methyl)benzyl)isoxazol-5-yl)pyridin-2-amine]	0.01 to 0.1 (≈ 0.0277 to 0.277 µM)	0.01 to 0.1 (≈ 0.0277 to 0.277 µM)	0.01 to 0.1	0.1 to 1	0.01 to 0.1 (≈ 0.0277 to 0.277 µM)
Nc1ncccc1-c1cc(Cc2ccc(CNc3ccnc(F)c3)cc2)no1 [compound 70, 3-(3-(4-(((2-fluoropyridin-4-yl)amino)methyl)benzyl)isoxazol-5-yl)pyridin-2-amine]	0.1 to 1 (≈ 0.266 to 2.66 µM)	0.1 to 1 (≈ 0.266 to 2.66 µM)	0.01 to 0.1	> 1	0.1 to 1 (≈ 0.266 to 2.66 µM)
